Measurements published in patent US9408853B2, “Iridium/rhodium anti-cancer compounds” (University of Warwick, priority 2010, dated 2016).

Tested on: 9-ethylguanine (9-EtG)
Test: Interactions with nucleobases: 9-EtG adduct formation (1H NMR)
Format: binding
Details: 10 min; 1 mM, 1 mol equiv 9-EtG (ZL33A: 2 mol equiv), D2O, 310 K
Method: (§1) Interactions with Nucleobases. The reaction of ZL01, ZL03, ZL04, ZL07, ZL25, ZL33, ZL37, ZL38, ZL43 and ZL54 and ZL33A with nucleobases typically involved addition of a solution containing 1-2 mol equiv of nucleobase in D2O, to an equilibrium solution of ZL01, ZL03, ZL04, ZL07, ZL25, ZL33, ZL37, ZL38, ZL43, ZL54 and ZL33A in a solution of 5% MeOD-d4/95% D2O (v/v). ^1H NMR spectra of these solutions were recorded at 310 K after various time intervals.
(§2) Since DNA is a potential target site for transition metal anticancer complexes,^18 nucleobase binding reactions of compounds ZL01, ZL03, ZL04, ZL07, ZL25, ZL33, ZL33A, ZL37, ZL38, ZL43 and ZL54 with nucleobase models 9-ethylguanine (9-EtG) and 9-ethyladenine (9-EtA), were investigated. Solutions of ZL01, ZL03, ZL04, ZL07, ZL25, ZL33, ZL37, ZL38, ZL43 and ZL54 (1 mM) (containing an equilibrium mixture of these complexes and their respective aqua adducts) with 1 mol equivalent of 9-EtG or 9-EtA in D2O were prepared, and ^1H NMR spectra were recorded at different time intervals.
Interactions with Nucleobases. Since DNA is a potential target site for transition metal anticancer complexes,^23 the binding of 9-ethylguanine (9-EtG) to complexes ZL47, ZL49, ZL69, ZL74 and ZL107 was studied.

Compound | Reaction with 9-EtG, extent of adduct formation [%]
Cc1c(C)c(C)[c-](C)c1C.O=C([O-])c1ccccn1.[Cl-].[Ir+3] [ZL03, [(η^5-C5Me5)Ir(η^2—C5H4N-2-CO2)Cl]] | 100
Cc1c(C)c(C)[c-](C)c1C.[Cl-].[Cl][Ir]1[n+]2ccccc2-c2cccc[n+]21 [ZL04, [(η^5-C5Me5)Ir(bipy)Cl]Cl] | 28.2
[(η^5-C5Me4C6H5)Ir(phen)(H2O)]^2+ [ZL33A] | 65
Cc1c(C)c(C)[c-](C)c1C.F[P-](F)(F)(F)(F)F.NCCN.[Cl-].[Ir+3] [ZL01, [(η^5-C5Me5)IrCl(H2NCH2CH2NH2—N,N)]PF6] | 100

Same assay, conditions: 24 h; 1 mM, 1 mol equiv 9-EtG (ZL33A: 2 mol equiv), D2O, 310 K

Compound | Reaction with 9-EtG, extent of adduct formation [%]
Cc1c(C)c(C)[c-](C)c1C.O=C([O-])c1ccccn1.[Cl-].[Ir+3] [ZL03, [(η^5-C5Me5)Ir(η^2—C5H4N-2-CO2)Cl]] | 100
[(η^5-C5Me4C6H5)Ir(phen)(H2O)]^2+ [ZL33A] | 73
Cc1c(C)c(C)[c-](C)c1C.F[P-](F)(F)(F)(F)F.NCCN.[Cl-].[Ir+3] [ZL01, [(η^5-C5Me5)IrCl(H2NCH2CH2NH2—N,N)]PF6] | 100

Tested on: 9-ethyladenine (9-EtA)
Test: Interactions with nucleobases: 9-EtA adduct formation (1H NMR)
Format: binding
Details: 10 min; 1 mM, 1 mol equiv 9-EtA, D2O, 310 K
Method: as §1, §2

Compound | Reaction with 9-EtA, extent of adduct formation [%]
Cc1c(C)c(C)[c-](C)c1C.O=C([O-])c1ccccn1.[Cl-].[Ir+3] [ZL03, [(η^5-C5Me5)Ir(η^2—C5H4N-2-CO2)Cl]] | 80.8
Cc1c(C)c(C)[c-](C)c1C.[Cl-].[Cl][Ir]1[n+]2ccccc2-c2cccc[n+]21 [ZL04, [(η^5-C5Me5)Ir(bipy)Cl]Cl] | 0
[(η^5-C5Me4C6H5)Ir(phen)(H2O)]^2+ [ZL33A] | 0
Cc1c(C)c(C)[c-](C)c1C.F[P-](F)(F)(F)(F)F.NCCN.[Cl-].[Ir+3] [ZL01, [(η^5-C5Me5)IrCl(H2NCH2CH2NH2—N,N)]PF6] | 0

Same assay, conditions: 24 h; 1 mM, 1 mol equiv 9-EtA, D2O, 310 K

Compound | Reaction with 9-EtA, extent of adduct formation [%]
Cc1c(C)c(C)[c-](C)c1C.O=C([O-])c1ccccn1.[Cl-].[Ir+3] [ZL03, [(η^5-C5Me5)Ir(η^2—C5H4N-2-CO2)Cl]] | 80.7
Cc1c(C)c(C)[c-](C)c1C.[Cl-].[Cl][Ir]1[n+]2ccccc2-c2cccc[n+]21 [ZL04, [(η^5-C5Me5)Ir(bipy)Cl]Cl] | 0
[(η^5-C5Me4C6H5)Ir(phen)(H2O)]^2+ [ZL33A] | 0
Cc1c(C)c(C)[c-](C)c1C.F[P-](F)(F)(F)(F)F.NCCN.[Cl-].[Ir+3] [ZL01, [(η^5-C5Me5)IrCl(H2NCH2CH2NH2—N,N)]PF6] | 0

Tested on: human ovarian A2780 cancer cells
Test: Cancer cell cytotoxicity, SRB assay
Format: cell-based
Details: 24 h exposure, 72 h recovery, SRB; read-out: A2780 IC50
Method: Cancer Cell Cytotoxicity. After plating, human ovarian A2780 cancer cells were treated with Ir^III complexes on day 3 at concentrations ranging from 0.5 μM to 100 μM. Solutions of the Ir^III complexes were made up in 0.125% DMSO to assist dissolution. Stock solutions of the IrIII complexes were firstly prepared in DMSO to assist dissolution, and then diluted into 0.9% saline and medium. After plating 5000 A2780 cells per well on day 1, IrIII complexes were added to the cancer cells on day 3 at concentrations ranging from 0.05 μM to 100 μM. Cells were exposed to the complexes for 24 h, washed, supplied with fresh medium, allowed to grow for three doubling times (72 h), and then the protein content measured (proportional to cell survival) using the sulforhodamine B (SRB) assay.^15 […]. The standard errors are based on two independent experiments of three replicates each.

Compound | IC50 [µM]
Cc1c(C)c(C)[c-](C)c1C.O=C([O-])c1ccccn1.[Cl-].[Ir+3] [ZL03, [(η^5-C5Me5)Ir(η^2—C5H4N-2-CO2)Cl]] | > 100
Cc1c(C)c(C)[c-](C)c1C.[Cl-].[Cl][Ir]1[n+]2ccccc2-c2cccc[n+]21 [ZL04, [(η^5-C5Me5)Ir(bipy)Cl]Cl] | > 100
[(η^5-C5Me4C6H5)Ir(phen)(H2O)]^2+ [ZL33A] | 6.7
N.N.[Cl][Pt][Cl] [Cisplatin, reference compound] | 1.2
Cc1c(C)c(C)[c-](C)c1C.F[P-](F)(F)(F)(F)F.NCCN.[Cl-].[Ir+3] [ZL01, [(η^5-C5Me5)IrCl(H2NCH2CH2NH2—N,N)]PF6] | > 100

Tested on: A549 cancer cell line
Test: Cytotoxicity, MTT assay (Brabec group)
Format: cell-based
Details: 72 h incubation, MTT
Method: (§3) The cytotoxicity test of ZL07, ZL33, ZL38 and ZL54 against A2780, SW480, A549 and CH1 cell lines was performed by Viktor Brabec group (Institute of Biophysics, Academy of Sciences of the Czech Republic). After plating, the cells were treated with ZL07, ZL33, ZL38 and ZL54. After 72h of incubation 10 μl of MTT (2.5 mg/ml; CALBIOCHEM) was added to each well and incubated for 4 h in culture conditions. At the end of the incubation period the medium was removed and the formazan product was dissolved in 100 μl DMSO. The cell viability was evaluated by measurement of the absorbance at 570 nm, using an Absorbance Reader SUNRICE TECAN SCHOELLER. […] All experiments were made in quadruplicate.

Compound | IC50 [µM]
N.N.[Cl][Pt][Cl] [Cisplatin, reference compound] | 5.9 ± 1.9

Tested on: CH1 cancer cell line
Test: Cytotoxicity, MTT assay (Brabec group)
Format: cell-based
Details: 72 h incubation, MTT
Method: as §3

Compound | IC50 [µM]
N.N.[Cl][Pt][Cl] [Cisplatin, reference compound] | 0.59 ± 0.1

Tested on: SW480 cancer cell line
Test: Cytotoxicity, MTT assay (Brabec group)
Format: cell-based
Details: 72 h incubation, MTT
Method: as §3

Compound | IC50 [µM]
N.N.[Cl][Pt][Cl] [Cisplatin, reference compound] | 9.24 ± 1.1
